# Measured values from patent publication US9737502B2, “Calebin A for hepatic steatosis” (SAMI LABS LIMITED, priority 2011, dated 2017).
# Experiments:
# [1] = tested on: IL-1β; assay: Extracellular IL-1β in LPS-stimulated murine neutrophils; format: cell-based; settings: 100 μg/ml
# [2] = tested on: TNF-α; assay: Intracellular TNF-α in LPS-stimulated murine neutrophils (flow cytometry); format: cell-based; settings: 100 μg/ml
# Description: The present inventors also adduce extra evidence to support the ability of Calebin A to suppress intracellular TNF and extracellular IL-1β in murine neutrophil systems (Table II, Table III). Neutrophils are isolated by histopaque gradient method tested for their ability to produce in vitro TNF-α following stimulation with Lipopolysaccharide (LPS). The cells were incubated with phycoerythrin (PE)-labeled anti-mouse TNF-α in the dark, and after being washed with sterile PBS, samples were resuspended in PBS (pH 7.4) and acquired directly on the flow cytometer (BDLSR; Becton Dickinson). A fluorescence trigger was set on the PE […] parameter of the gated neutrophil populations (10,000 events). Rolipram at 100 μg/ml was used as standard inhibitor of TNF-α in this study. Fluorescence compensation, data analysis, and data presentation were performed using Cell Quest Pro software (Becton Dickinson).
compound,measurement,setting,value
"COc1ccc(C2CNC(=O)C2)cc1OC1CCCC1 (stereo not shown) [Rolipram, reference compound]",% Activity (suppression of IL-1 β expression),[1],56.52%↓
same,IL-1β Concentration,[1]; LPS Control 51.80 ± 2.18,22.52 ± 1.60 pg/mL
same,% Activity (suppression of TNF-α expression),[2],72.13%↓
same,Expression of TNF-α Mean ± S.E,[2]; LPS Control 2.62 ± 0.01,0.73 ± 0.09
